From patent US10149838B2, “Small molecule securinine and norsecurinine analogs and their use in inhibiting myeloperoxidase” (MiRx Pharmaceuticals, LLC, priority 2013, dated 2018)

Columns and labels:
[1] = biological target: T1, MPO (Homo sapiens, UniProt P05164); assay: Myeloperoxidase Inhibitor Screening Assay Kit (Cayman Chemical), chlorination activity; type: biochemical; parameters: purchased Cayman Chemical 700170; concentration or dose not given beside the values; details: Table 1; MPO inhibitory activity
T1 sequence (P05164 49-745): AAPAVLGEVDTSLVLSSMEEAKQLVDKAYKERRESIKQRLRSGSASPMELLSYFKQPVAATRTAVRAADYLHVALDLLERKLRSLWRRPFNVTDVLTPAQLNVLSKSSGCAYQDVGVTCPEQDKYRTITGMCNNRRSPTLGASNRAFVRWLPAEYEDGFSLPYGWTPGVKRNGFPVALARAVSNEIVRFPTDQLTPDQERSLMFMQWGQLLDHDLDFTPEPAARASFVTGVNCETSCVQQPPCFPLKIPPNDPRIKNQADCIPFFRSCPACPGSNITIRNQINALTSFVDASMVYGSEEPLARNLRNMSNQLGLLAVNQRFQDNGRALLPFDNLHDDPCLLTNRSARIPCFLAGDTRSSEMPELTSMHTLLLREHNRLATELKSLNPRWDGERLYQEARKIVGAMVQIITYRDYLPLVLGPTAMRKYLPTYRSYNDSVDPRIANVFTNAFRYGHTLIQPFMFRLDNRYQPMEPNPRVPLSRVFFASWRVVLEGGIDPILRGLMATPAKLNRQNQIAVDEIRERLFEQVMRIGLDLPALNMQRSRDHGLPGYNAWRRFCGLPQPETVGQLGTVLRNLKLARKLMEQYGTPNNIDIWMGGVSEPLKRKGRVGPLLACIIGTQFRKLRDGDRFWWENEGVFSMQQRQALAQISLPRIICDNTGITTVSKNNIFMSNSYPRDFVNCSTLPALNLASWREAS
Protocol: The columns are represented as follows: A: Blank; B: Commercial inhibitor; C; Another commercial inhibitor (sc-204107); D: Securinine; E: INVS-MG-98B, F: 14-Iodosecurinine; G; INVS-MG-106B.
The analogs described herein were contacted against MPO and the biological activity was assessed. Tables 1 and 2 show representative biological activity examples and that the listed compounds are potent inhibitors of MPO, specifically that the analogs inhibit chlorination activity. The compounds were tested for MPO inhibitory activity using the Myeloperoxidase Inhibitor Screening Assay Kit (Cayman Chemical Cat #700170) as described in the manufacturers manual
Studies were then aimed at establishing dose dependent relative chlorination activity results of securinine and norsecurinine analogs. As depicted in FIG. 4, the analogs of the present invention were extremely potent in inhibiting chlorination.

[2] = biological target: T1, MPO; assay: Biotin pull-down with streptavidin magnetic beads from HL60 cells, SDS-PAGE, MS and western blot; type: binding; parameters: endogenous in cells; host or cells: HL60; details: 10 μM, 2 hr, biotin-conjugated
Protocol: Only MPO (red) and H2O2 promoted a shift in the Soret peak, formation of a new band at 630 nm (blue).
It was next set about to investigate the molecular target of the analogs (FIG. 6A). Cultured HL60 cells were treated with either Biotin/Biotin-INVMG1 (securinine) (10 μM) for 2 hr and pull-down experiments using streptavidin magnetic beads were used to pulldown bound molecules, followed by SDS-PAGE analysis (FIG. 6B). […] This 80 kDa protein band was excised, digested with trypsin, and the tryptic digests then analyzed using Mass Spectroscopy. […] The proteins bound to streptavidin beads were next separated using SDS-PAGE and incubated then with anti-human MPO antibody. […] To further confirm the binding of INVMG1 to MPO, the MPO enzyme was incubated with and without INVMG184B/H2O2, and analyzed absorption maxima using UV/visible.

[3] = test system: some cell lines; assay: MTT cell survival assay (Roche), cell lines not specified; type: cell-based; details: cell culture conditions
Description: The securinine analog MPO inhibitors have favorable in vitro and in vivo toxicity profiles.

SMILES: O=C1C=C2CC(N3CCC(F)(F)C3)[C@@H]3C[C@@]2(O1)[C@H]1CCCCN31 (stereo partly drawn) [9A]
- % Activity [1]: 46%

SMILES: O=C1C=C2C[C@H](SCC(F)(F)F)[C@@H]3C[C@@]2(O1)[C@H]1CCCCN31 (stereo in doubt) [5B]
- % Activity [1]: 83%

SMILES: O=C1C=C2CC(SC34CC5CC(CC(C5)C3)C4)[C@@H]3C[C@@]2(O1)[C@H]1CCCCN31 (stereo partly drawn) [4A]
- % Activity [1]: 1%

SMILES: O=C1C=C2CC(NC3CCCCCC3)[C@@H]3C[C@@]2(O1)[C@H]1CCCCN31 (stereo partly drawn) [29A]
- % Activity [1]: 1%

SMILES: CC(C)SC1CC2=CC(=O)O[C@@]23C[C@@H]1N1CCCC[C@@H]13 (stereo partly drawn) [37B]
- % Activity [1]: 97%

SMILES: O=C1C=C2CC(NC3CCCCC3)[C@@H]3C[C@@]2(O1)[C@H]1CCCCN31 (stereo partly drawn) [28B]
- % Activity [1]: 86%

SMILES: CCCCCCCSC1CC2=CC(=O)O[C@@]23C[C@@H]1N1CCCC[C@@H]13 (stereo partly drawn) [19A]
- % Activity [1]: 38%

SMILES: COc1ccc2cc(C#CC3=C[C@@H]4C[C@@]5(OC(=O)C=C35)[C@H]3CCCCN43)ccc2c1 [157B]
- % Activity [1]: 80%

SMILES: O=C1CC2(SCC(F)(F)F)CC(SCC(F)(F)F)[C@@H]3C[C@@]2(O1)[C@H]1CCCCN31 (stereo partly drawn) [5A]
- % Activity [1]: 78%

SMILES: CCN(CC)CCSC1CC2=CC(=O)O[C@@]23C[C@@H]1N1CCCC[C@@H]13 (stereo partly drawn) [21B]
- % Activity [1]: 30%

SMILES: CCCN(CC#CC1=C[C@@H]2C[C@@]3(OC(=O)C=C13)[C@H]1CCCCN21)CCC [152A]
- % Activity [1]: 18%

SMILES: CC(C)CSC1CC2=CC(=O)O[C@@]23C[C@@H]1N1CCCC[C@@H]13 (stereo in doubt) [57A]
- % Activity [1]: 86%

SMILES: CO[C@H]1CC2=CC(=O)O[C@@]23C[C@@H]1N1CCCC[C@@H]13 [97-IIB]
- % Activity [1]: 97%

SMILES: O=C1C=C2CC(SCc3cccs3)[C@@H]3C[C@@]2(O1)[C@H]1CCCCN31 (stereo partly drawn) [INVS-MG-14B]
- % Activity [1]: 83%

SMILES: O=C1C=C2CC(NCC3CC3)[C@@H]3C[C@@]2(O1)[C@H]1CCCCN31 (stereo partly drawn) [25B]
- % Activity [1]: 99%

SMILES: O=C1C=C2C=C[C@@H]3C[C@@]2(O1)[C@H]1CCCCN31 [securinine, Securinine]
- binding to MPO in pull-down [2]: revealed the binding of MPO
- % Activity [1]: 32%

SMILES: O=C1C=C2CC(SCC3CCCCCC3)[C@@H]3C[C@@]2(O1)[C@H]1CCCCN31 (stereo partly drawn) [16A]
- % Activity [1]: 91%

SMILES: COc1cc(C#CC2=C[C@@H]3C[C@@]4(OC(=O)C=C24)[C@H]2CC[C@H](C(OC)OC)N32)cc(OC)c1 [222B]
- % Activity [1]: 70%

SMILES: NCCSC1CC2=CC(=O)O[C@@]23C[C@@H]1N1CCCC[C@@H]13 (stereo partly drawn) [compound 105]
- % Activity [1]: 99%

SMILES: O=C1C=C2C(C#Cc3cccs3)=C[C@@H]3C[C@@]2(O1)[C@H]1CCCCN31 [170B]
- % Activity [1]: 64%

SMILES: O=C(CCCC[C@@H]1SC[C@@H]2NC(=O)N[C@@H]21)NCCS[C@H]1CC2=CC(=O)O[C@@]23C[C@@H]1N1CCCC[C@@H]13 [SEC- BIO]
- % Activity [1]: 32%

SMILES: CCCSC1CC2=CC(=O)O[C@@]23C[C@@H]1N1CCCC[C@@H]13 (stereo partly drawn) [58C]
- % Activity [1]: 30%

SMILES: O=C1C=C2CC(NC3CC3)[C@@H]3C[C@@]2(O1)[C@H]1CCCCN31 (stereo partly drawn) [26A]
- % Activity [1]: 83%

SMILES: O=C1C=C2C=C[C@@H]3C[C@@]2(O1)[C@H]1CCCCN31 [MA1]
- in vitro toxicity (cell survival) [3]: higher toxicity effect on some cell lines

SMILES: O=C1C=C2CC(NC3CCCC3)[C@@H]3C[C@@]2(O1)[C@H]1CCCCN31 (stereo partly drawn) [27B]
- % Activity [1]: 46%

SMILES: CC(C)CS[C@H]1CC2=CC(=O)O[C@@]23C[C@@H]1N1CCCC[C@@H]13 (stereo in doubt) [57B]
- % Activity [1]: 2%

SMILES: C#CC1=C[C@@H]2C[C@@]3(OC(=O)C=C13)[C@H]1CCCCN21 [207A]
- % Activity [1]: 99%

SMILES: O=C1C=C2CC(NC3CCCCCCC3)[C@@H]3C[C@@]2(O1)[C@H]1CCCCN31 (stereo partly drawn) [30A]
- % Activity [1]: 78%

SMILES: O=C1C=C2CC(NC3CC(O)C3)[C@@H]3C[C@@]2(O1)[C@H]1CCCCN31 (stereo partly drawn) [46B]
- % Activity [1]: 99%
